From patent US5981519A, “Vinyl-pyrrolidinone cephalosporins” (Hoffman-La Roche Inc., priority 1996, dated 1999)
Values after ≈ are worked out from the molar mass of the structure shown.

Experiments:
S. aureus 270 A (MRSA) = experiment: In vivo efficacy, sc abscess model in mice infected with S. aureus 270 A (MRSA); settings: 10 mg/kg ip; for Median log CFU: 3 mice, untreated 6.92
Description: In vivo efficacy was determined with a sc abscess model in mice, infected with S. aureus 270 A (MRSA). The dose (ip) was 10 mg/kg. The median log of colony forming units (CFU) was determined.

S.aureus 6538 (MSSA) = experiment: In vitro activity, minimum inhibitory concentration, agar dilution, S. aureus 6538 (MSSA); format: cell-based; settings: Staphylococcus aureus, Mueller Hinton agar, inoculum=10^4 CFU/spot
Description: (§1) Representative compounds (A and B, above) of the present invention were tested. In vitro activity was determined by minimum inhibitory concentration by the agar dilution method in Mueller Hinton agar, inoculum=10^4 CFU/spot.

S. aureus 743 (MRSA) = experiment: In vitro activity, minimum inhibitory concentration, agar dilution, S. aureus 743 (MRSA); format: cell-based; settings: Staphylococcus aureus, Mueller Hinton agar, inoculum=10^4 CFU/spot
Description: as §1

P. aeruginosa ATCC27853 = experiment: In vitro activity, minimum inhibitory concentration, agar dilution, P. aeruginosa ATCC27853; format: cell-based; settings: Pseudomonas aeruginosa, Mueller Hinton agar, inoculum=10^4 CFU/spot
Description: as §1

S. aureus 270A (MRSA) = experiment: In vitro activity, minimum inhibitory concentration, agar dilution, S. aureus 270A (MRSA); format: cell-based; settings: Staphylococcus aureus, Mueller Hinton agar, inoculum=10^4 CFU/spot
Description: as §1

MRSA = experiment: In vitro activity, MIC90 against MRSA (n = 38), agar dilution; format: cell-based; settings: Staphylococcus aureus, MuellerHinton agar, inoculum: 10^5 CFU/spot
Description: as §1
*Agar dilution method on MuellerHinton agar, inoculum: 10^5 CFU/spot

| MIC (S.aureus 6538 (MSSA)) [µg/mL] | MIC (S. aureus 743 (MRSA)) [µg/mL] | MIC (P. aeruginosa ATCC27853) [µg/mL] | MIC (S. aureus 270A (MRSA)) [µg/mL] | MIC90 (MRSA) [µg/mL] | Compound | Median log CFU (S. aureus 270 A (MRSA)) [log CFU] | activity compared with vancomycin (S. aureus 270 A (MRSA)) | reduction in the number of CFUs as compared to the untreated control (S. aureus 270 A (MRSA)) |
| --- | --- | --- | --- | --- | --- | --- | --- | --- |
| – | – | – | – | – | CN[C@H](CC(C)C)C(=O)N[C@H]1C(=O)N[C@@H](CC(N)=O)C(=O)N[C@H]2C(=O)N[C@H]3C(=O)N[C@H](C(=O)N[C@H](C(=O)O)c4cc(O)cc(O)c4-c4cc3ccc4O)[C@H](O)c3ccc(c(Cl)c3)Oc3cc2cc(c3O[C@@H]2O[C@H](CO)[C@@H](O)[C@H](O)[C@H]2O[C@H]2C[C@](C)(N)[C@H](O)[C@H](C)O2)Oc2ccc(cc2Cl)[C@H]1O [Vancomycin, vancomycin, reference compound] | 5.28 | – | – |
| 0.5 (≈ 0.935 µM) | 2 (≈ 3.74 µM) | 2 (≈ 3.74 µM) | 2 (≈ 3.74 µM) | 4 (≈ 7.48 µM) | Nc1nc(/C(=N/O)C(=O)N[C@@H]2C(=O)N3C(C(=O)O)=C(/C=C4\CCN([C@@H]5CCNC5)C4=O)CS[C@H]23)ns1 [A, (6R, 7R)-7-[(Z)-2-(5-Amino-[1,2,4]thiadiazol-3-yl)-2-hydroxyimino-acetylamino]-8-oxo-3-[(E)-(R)-2-oxo-[1,3']bipyrrolidinyl-3-ylidenemethyl]-5-thia-1-aza-bicyclo[4.2.0]oct-2-ene-2-carboxylic acid] | 4.72 | more active than vancomycin | more than hundred-fold reduction |
| 0.25 (≈ 0.468 µM) | 2 (≈ 3.74 µM) | 4 (≈ 7.48 µM) | 4 (≈ 7.48 µM) | 4 (≈ 7.48 µM) | Nc1nc(/C(=N/O)C(=O)N[C@@H]2C(=O)N3C(C(=O)O)=C(/C=C4\CCN([C@H]5CCNC5)C4=O)CS[C@H]23)ns1 [B, (6R, 7R)-7-[(Z)-2-(5-Amino-[1,2,4]thiadiazol-3-yl)-2-hydroxyimino-acetylamino]-8-oxo-3-[(E)-(S)-2-oxo-[1,3']bipyrrolidinyl-3-ylidenemethyl]-5-thia-1-aza-bicyclo[4.2.0]oct-2-ene-2-carboxylic acid] | – | – | – |
